We go through nine molecules from patent US20120291159A1, “Azoline Compounds for Combating Invertebrate Pests” (BASF SE, priority 2009, published 2012).

The structures appear in SMILES notation. Where a name gives a salt, the structure may show the parent alone. Where only a bound is given, the exact number is not on record here.

Common to all, as to assay type: in vivo
Series [1] concerns Mediterranean Fruitfly (Ceratitis capitata). As to the kind of experiment: Mediterranean fruitfly microtiter diet test (B.4). Conditions: 120 h, egg and larval mortality after 5 days, read-out: mortality in comparison with untreated controls. Here is the method:
B.4 Mediterranean Fruitfly (Ceratitis capitata)
For evaluating control of Mediterranean fruitfly (Ceratitis capitata) the test unit consisted of microtiter plates containing an insect diet and 50-80 C. capitata eggs. The compounds were formulated using a solution containing 75% v/v water and 25% v/v DMSO. Different concentrations of formulated compounds were sprayed onto the insect diet at 5 μl, using a custom built micro atomizer, at two replications. After application, microtiter plates were incubated at about 28±1° C. and about 80±5% relative humidity for 5 days. Egg and larval mortality was then visually assessed.

Series [2] deals with Boll Weevil (Anthonomus grandis). Put plainly: Boll weevil microtiter diet test (B.11). Conditions: 120 h, egg and larval mortality after 5 days, read-out: mortality in comparison with untreated controls. How it is done:
B.11 Boll Weevil (Anthonomus grandis)
For evaluating control of boll weevil (Anthonomus grandis) the test unit consisted of 24-well-microtiter plates containing an insect diet and 20-30 A. grandis eggs.
The compounds were formulated using a solution containing 75% v/v water and 25% v/v DMSO. Different concentrations of formulated compounds were sprayed onto the insect diet at 20 μl, using a custom built micro atomizer, at two replications.
After application, microtiter plates were incubated at about 23±1° C. and about 50±5% relative humidity for 5 days. Egg and larval mortality was then visually assessed.

For series [3], the system named is Vetch Aphid (Megoura viciae). Put plainly: Vetch aphid leaf disk microtiter test (B.9). Conditions: foliar, 120 h, adult aphids on broad bean leaf disks, 5 days, read-out: mortality in comparison with untreated controls. How it is done: B.9 Vetch Aphid (Megoura viciae)
For evaluating control of vetch aphid (Megoura viciae) through contact or systemic means the test unit consisted of 24-well-microtiter plates containing broad bean leaf disks.
The compounds were formulated using a solution containing 75% v/v water and 25% v/v DMSO. Different concentrations of formulated compounds were sprayed onto the leaf disks at 2.5 μl, using a custom built micro atomizer, at two replications.
After application, the leaf disks were air-dried and 5-8 adult aphids placed on the leaf disks inside the microtiter plate wells. The aphids were then allowed to suck on the treated leaf disks and incubated at about 23±1° C. and about 50±5% relative humidity for 5 days. Aphid mortality and fecundity was then visually assessed.

Series [4] relates to Cowpea Aphid (Aphis craccivora). Put plainly: Cowpea aphid spray test on potted cowpea plants (B.2). Conditions: 100 ppm; sprayed cowpea plants; assessed after 24, 72 and 120 hours. Here is the method: If not otherwise specified the test solutions were prepared as follow:
The active compound was dissolved at the desired concentration in a mixture of 1:1 (vol:vol) distilled water:acteon. The test solution was prepared the day it was used and in general at concentrations of […] (wt/vol).
B.2 Cowpea Aphid (Aphis craccivora)
Potted cowpea plants colonized with approximately 100-150 aphids of various stages were sprayed after the pest population has been recorded. Population reduction was assessed after 24, 72, and 120 hours.

Series [5] relates to Silverleaf Whitefly (Bemisia argentifoli). Put plainly: Silverleaf whitefly cotton plant spray test (B.6). Conditions: 300 ppm; whitefly adults on sprayed cotton, 3 days after treatment. The source says: B.6 Silverleaf Whitefly (Bemisia argentifoli)
(§1) The active compounds were formulated in cyclohexanone as a 10,000 ppm solution supplied in tubes. The tubes were inserted into an automated electrostatic sprayer equipped with an atomizing nozzle and they served as stock solutions for which lower dilutions were made in 50% acetone:50% water (v/v). A nonionic surfactant (Kinetic®) was included in the solution at a volume of 0.01% (v/v).
Cotton plants at the cotyledon stage (one plant per pot) were sprayed by an automated electrostatic plant sprayer equipped with an atomizing spray nozzle. The plants were dried in the sprayer fume hood and then removed from the sprayer. Each pot was placed into a plastic cup and about 10 to 12 whitefly adults (approximately 3-5 days old) were introduced. The insects were collected using an aspirator and a nontoxic Tygon® tubing connected to a barrier pipette tip. The tip, containing the collected insects, was then gently inserted into the soil containing the treated plant, allowing insects to crawl out of the tip to reach the foliage for feeding. Cups were covered with a reusable screened lid. […] Mortality was assessed 3 days after treatment, compared to untreated control plants.

Series [6] deals with Tobacco Budworm (Heliothis virescens). Put plainly: Tobacco budworm cotton plant spray test (B.10). Particulars: 2500 ppm; larvae on sprayed cotton, 4 days after treatment. Here is the method: B.10 Tobacco Budworm (Heliothis virescens) I
as §1
Cotton plants were grown 2 plants to a pot and selected for treatment at the cotyledon stage. Test solutions were sprayed onto the foliage by an automated electrostatic plant sprayer equipped with an atomizing spray nozzle. The plants were dried in the sprayer fume hood and then removed from the sprayer. Each pot was placed into perforated plastic bags with a zip closure. About 10 to 11 budworm larvae were placed into the bag and the bags zipped closed. Test plants were maintained in a growth room at about 25° C. and about 20-40% relative humidity for 4 days, avoiding direct exposure to fluorescent light (24 hour photoperiod) to prevent trapping of heat inside the bags. Mortality and reduced feeding were assessed 4 days after treatment, compared to untreated control plants.

For series [7], the system named is Orchid Thrips (Dichromothrips corbetti). As to the kind of experiment: Orchid thrips floral-immersion test (B.5). Conditions: 500 ppm, adult thrips, after 4 days. Here is the method:
B.5 Orchid Thrips (Dichromothrips corbetti)
Dichromothrips corbetti adults used for bioassay are obtained from a colony maintained continuously under laboratory conditions. […]
Thrips potency of each compound is evaluated by using a floral-immersion technique. Plastic petri dishes are used as test arenas. All petals of individual, intact orchid flowers are dipped into treatment solution and allowed to dry. Treated flowers are placed into individual petri dishes along with 10-15 adult thrips. The petri dishes are then covered with lids. All test arenas are held under continuous light and a temperature of about 28° C. for duration of the assay. After 4 days, the numbers of live thrips are counted on each flower, and along inner walls of each petri dish. The level of thrips mortality is extrapolated from pre-treatment thrips numbers.

Take `CCC(=O)NCc1cccc(C2=NOC(c3cc(Cl)cc(Cl)c3)(C(F)(F)F)C2)c1` (centres unmarked) [compound 3-2, N-{3-[5-(3,5-dichloro-phenyl)-5-trifluoromethyl-4,5-dihydro-isoxazol-3-yl]-benzyl}-propionamide]: the mortality at 2500 ppm in series [1], in series [2] and in series [3] was no less than 75% each time.

As for `CN1CCC(Oc2cccc(C3=NOC(c4cc(Cl)cc(Cl)c4)(C(F)(F)F)C3)c2)C1=O` (centres unmarked) [compound 5-1], the “mortality in comparison with untreated controls” value (from here on “mortality in comparison”) in series [4] is reported as “at least 75%”.

In the case of `CSCC(=O)NCc1cccc(C2=NOC(c3cc(Cl)cc(Cl)c3)(C(F)(F)F)C2)c1` (centres unmarked) [compound 3-4, N-{3-[5-(3,5-dichloro-phenyl)-5-trifluoromethyl-4,5-dihydro-isoxazol-3-yl]-benzyl}-2-methylsulfanyl-acetamide], in series [1], the mortality (usually the share of the test organisms that died) at 2500 ppm was no less than 75%.

Turning to `CCCC(=O)OCc1cccc(C2=NOC(c3cc(Cl)cc(Cl)c3)(C(F)(F)F)C2)c1` (centres unmarked) [compound 3-9], the “mortality in comparison” value in series [5] is “at least 75%”.

For `NCc1cccc(C2=NOC(c3cc(Cl)cc(Cl)c3)(C(F)(F)F)C2)c1` (centres unmarked) [compound 3-1, 3-[5-(3,5-dichloro-phenyl)-5-trifluoromethyl-4,5-dihydro-isoxazol-3-yl]-benzylamine hydrochloride], the mortality at 2500 ppm in series [1], in series [2] and in series [3] was no less than 75% each time.

For `CCCC(=O)NCc1cccc(C2=NOC(c3cc(Cl)cc(Cl)c3)(C(F)(F)F)C2)c1` (centres unmarked) [compound 3-5, N-{3-[5-(3,5-dichloro-phenyl)-5-trifluoromethyl-4,5-dihydro-isoxazol-3-yl]-benzyl}-butyramide], the mortality at 2500 ppm in series [1], in series [2] and in series [3] was no less than 75% throughout.

Consider `CC(=O)NCc1cccc(C2=NOC(c3cc(Cl)cc(Cl)c3)(C(F)(F)F)C2)c1` (centres unmarked) [compound 3-3, N-{3-[5-(3,5-dichloro-phenyl)-5-trifluoromethyl-4,5-dihydro-isoxazol-3-yl]-benzyl}-acetamide], for which the mortality at 2500 ppm in series [1], in series [2] and in series [3] was no less than 75% in each case.

With `[O-][S+](c1cccc(C2=NOC(c3cc(Cl)cc(Cl)c3)(C(F)(F)F)C2)c1)C(F)(F)F` (centres unmarked) [compound 6-2], the “mortality in comparison” value in series [6] was “at least 75%”.

Turning to `O=C(NCC(F)(F)F)c1cc(C2=NOC(c3cc(Cl)cc(Cl)c3)(C(F)(F)F)C2)ccn1` (centres unmarked) [compound 2-3], the “mortality in comparison” value in series [7] is listed as “at least 75%”.
